Holding throughout (assay type): biochemical
One experiment concerns the target T1, EGFR (Homo sapiens, UniProt P00533).
T1 construct: The intracellular portion of EGFR started at nucleotide 2189 (corresponding to amino acid 667) and ended at the termination codon; made in house; host or cells: Sf9 insect cells (baculovirus)
The experiment can be described thus: EGFR Kinase Assay. Conditions: for IC50: GST-EGFR, ATP 5 μM; for inhibition at 2 µM: test concentration of 2 μM, compounds without an IC50, read-out: EGFR inhibition in percent. Put shortly: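 GST-fused human EGFR intracellular domain (from aa 667), Sf9-expressed, phosphorylated biotinylated polyGluTyr with 5 μM ATP plus γ-33P ATP in Tris pH 8.0, MgCl2, vanadate, 1 mM DTT, 1 h at 30 °C. Streptavidin Flashplate scintillation read; triplicate 16-point half-log series from 200 uM; IC50 from % inhibition vs log concentration, else % inhibition at 2 μM.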

In another experiment the target is T2, c-Src kinase (human) (Homo sapiens, UniProt P12931).
T2 construct: purchased Upstate Biotechnology, Lake Placid, N.Y
The experiment can be described thus: c-Src Kinase Assay. Conditions: test concentration of 2 μM; multiple values are separate assay results. The protocol: A mixture of a 10× kinase buffer (80 mM MOPS at pH 7.0, 2 mM EDTA and 100 mM Magnesium Chloride), ATP (5 μM final from a 10 mM stock), a Cdc2 peptide KVEKIGEGTYGVVYK (100 μM final from a 2.5 mM stock), γ-^33P ATP (10 μCl/μL stock) and water (for a total of 20 μL/well) was added to each well of a Streptavidin Flashplate.
Test compound in 100% DMSO (0.5 μL) was added to the appropriate wells. Diluted c-Src kinase (human) (Accession Number SWISS-PROT P12931) (Upstate Biotechnology, Lake Placid, N.Y.) (diluted in a buffer consisting of 20 mM MOPS at pH 7.0, 1 mM EDTA, β-mercaptoethanol (0.1%), Brij-35 (0.01%), glycerol (5%), and 1 mg/mL bovine serum albumin) (2.5 μL) was added to the wells to initiate the reactions. The reaction plates were incubated at 30° C. for 40 min. The reaction was terminated by the addition of a 3% phosphoric acid solution (5 μL). The reaction product (10 μL) was spotted onto a P30 filtermat and washed for 5 minutes in phosphoric acid (75 mM). The wash sequence was repeated two more times, followed with one final wash in methanol. The plates were then dried, sealed and read on the TopCount scintillation counter after adding 30 μL scintillation fluid.
The c-Src inhibition values were derived using the percent inhibition formula provided in Example 164 and are shown as percent in Table 2 at a test concentration of 2 μM. For those compounds with an IC50, the IC50 value in μM is shown in parentheses. For compounds with multiple test values, each value represents a separate assay result.

A further experiment concerns the target T3, Lyn kinase (human) (Homo sapiens, UniProt P07948).
T3 construct: purchased Upstate Biotechnology, Lake Placid, N.Y
Briefly: Lyn Kinase Assay. Conditions: test concentration of 2 μM. The protocol: A mixture of a 10× kinase buffer (500 mM MOPS at pH 7.5, 1 mM EGTA, 1 mM Sodium Vanadate, 1% β-mercaptoethanol and 100 mM Magnesium Acetate), ATP (5 μM final from a 10 mM stock), polyGluTyr (0.1 mg/mL final from a 1 mg/mL stock), γ-^33P ATP (10 μCl/μL stock) and water (for a total of 20 μL/well) was added to each well of a Streptavidin Flashplate.
Test compound in 100% DMSO (0.5 μL) was added to the appropriate wells. Diluted Lyn kinase (human)(Accession Number EMBL M16038) (Upstate Biotechnology, Lake Placid, N.Y.) (diluted in a buffer consisting of 50 mM Tris at pH 7.5, 0.1 mM EGTA, Sodium Vanadate (0.1 mM), β-mercaptoethanol (0.1%) and 1 mg/mL bovine serum albumin) (2.5 μL) was added to the wells to initiate the reactions.
The reaction plates were incubated at 30° C. for 40 min. The reaction was terminated by the addition of a 3% phosphoric acid solution (5 μL). The reaction product (10 μL) was spotted onto a P30 filtermat and washed for 5 minutes in phosphoric acid (75 mM). The wash sequence was repeated two more times, followed with one final wash in methanol. The plates were then dried, sealed and read on the TopCount scintillation counter after adding 30 μL scintillation fluid.
The Lyn inhibition values were derived according to the procedure described in Example 164 and are shown as percent in Table 3 at a test concentration of 2 μM. For those compounds with an IC50, the IC50 value in μM is shown in parentheses. For compounds with multiple test values, each value represents a separate assay result.

In the next experiment the target is T4, HER-2 (Homo sapiens, UniProt P04626).
T4 construct: His6 with thrombin site (N); purchased Proqinase (Freiburg, Germany)
The experiment can be described thus: HER-2 Kinase Assay. The following applies: for inhibition at 1 µM: test concentration of 1 μM; for IC50: value in parentheses. Put shortly:
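GST/HIS6-tagged HER-2 aa 679–1255 kinase with biotinylated polyGluTyr (1.5 ng/μL), 1 μM ATP plus γ-33P-ATP, Mg2+/Mn2+, DTT, Hepes pH 7.5; 1 h at 30 °C. Substrate phosphorylation captured on streptavidin scintillation plates after EDTA/PBS washes; values are % inhibition at 1 μM or IC50.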

T3 sequence (P07948 whole entry): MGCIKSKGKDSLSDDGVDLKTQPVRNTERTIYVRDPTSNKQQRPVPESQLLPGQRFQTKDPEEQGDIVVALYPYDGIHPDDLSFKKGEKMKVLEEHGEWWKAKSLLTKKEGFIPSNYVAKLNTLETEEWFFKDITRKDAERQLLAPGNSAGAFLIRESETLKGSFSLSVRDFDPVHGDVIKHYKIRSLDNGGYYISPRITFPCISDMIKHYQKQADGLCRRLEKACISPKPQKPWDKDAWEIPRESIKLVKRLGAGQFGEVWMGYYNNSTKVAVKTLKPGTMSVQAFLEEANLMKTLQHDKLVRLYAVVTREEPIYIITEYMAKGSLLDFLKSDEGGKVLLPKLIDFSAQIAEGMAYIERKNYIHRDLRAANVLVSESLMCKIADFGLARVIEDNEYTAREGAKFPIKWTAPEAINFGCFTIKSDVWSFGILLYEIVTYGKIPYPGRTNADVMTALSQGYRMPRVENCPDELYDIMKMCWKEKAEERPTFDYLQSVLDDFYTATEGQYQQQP
T2 sequence (P12931 whole entry): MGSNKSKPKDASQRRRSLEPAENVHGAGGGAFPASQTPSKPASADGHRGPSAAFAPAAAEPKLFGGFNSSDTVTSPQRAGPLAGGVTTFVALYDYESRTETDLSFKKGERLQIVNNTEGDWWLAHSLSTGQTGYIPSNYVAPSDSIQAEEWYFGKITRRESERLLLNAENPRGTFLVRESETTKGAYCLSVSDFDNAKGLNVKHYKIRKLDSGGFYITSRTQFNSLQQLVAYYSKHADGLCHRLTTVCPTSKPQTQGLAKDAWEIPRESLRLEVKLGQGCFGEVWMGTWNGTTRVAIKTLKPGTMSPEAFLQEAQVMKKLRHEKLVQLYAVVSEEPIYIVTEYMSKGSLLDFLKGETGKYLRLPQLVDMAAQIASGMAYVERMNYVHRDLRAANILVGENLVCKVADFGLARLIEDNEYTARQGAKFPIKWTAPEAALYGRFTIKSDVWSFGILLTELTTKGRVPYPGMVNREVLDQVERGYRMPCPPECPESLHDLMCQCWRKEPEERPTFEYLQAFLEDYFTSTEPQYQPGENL
T4 sequence (P04626 679-1255): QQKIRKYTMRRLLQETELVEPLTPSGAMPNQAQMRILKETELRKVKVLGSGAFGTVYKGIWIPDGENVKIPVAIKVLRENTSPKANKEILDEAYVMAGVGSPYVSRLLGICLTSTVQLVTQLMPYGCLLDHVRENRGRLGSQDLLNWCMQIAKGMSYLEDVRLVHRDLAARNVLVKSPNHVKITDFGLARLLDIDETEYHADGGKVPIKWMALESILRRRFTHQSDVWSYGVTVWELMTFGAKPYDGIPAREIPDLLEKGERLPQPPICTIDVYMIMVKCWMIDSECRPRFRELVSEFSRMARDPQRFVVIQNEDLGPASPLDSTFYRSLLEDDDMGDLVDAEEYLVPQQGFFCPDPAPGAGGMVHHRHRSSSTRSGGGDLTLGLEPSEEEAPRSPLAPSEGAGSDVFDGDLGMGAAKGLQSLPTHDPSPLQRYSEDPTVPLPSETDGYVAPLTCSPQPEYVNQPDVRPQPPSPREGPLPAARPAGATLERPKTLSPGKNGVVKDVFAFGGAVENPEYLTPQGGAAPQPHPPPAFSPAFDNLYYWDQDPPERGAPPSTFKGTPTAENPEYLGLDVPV
T1 sequence (P00533 669-1210 limits assumed): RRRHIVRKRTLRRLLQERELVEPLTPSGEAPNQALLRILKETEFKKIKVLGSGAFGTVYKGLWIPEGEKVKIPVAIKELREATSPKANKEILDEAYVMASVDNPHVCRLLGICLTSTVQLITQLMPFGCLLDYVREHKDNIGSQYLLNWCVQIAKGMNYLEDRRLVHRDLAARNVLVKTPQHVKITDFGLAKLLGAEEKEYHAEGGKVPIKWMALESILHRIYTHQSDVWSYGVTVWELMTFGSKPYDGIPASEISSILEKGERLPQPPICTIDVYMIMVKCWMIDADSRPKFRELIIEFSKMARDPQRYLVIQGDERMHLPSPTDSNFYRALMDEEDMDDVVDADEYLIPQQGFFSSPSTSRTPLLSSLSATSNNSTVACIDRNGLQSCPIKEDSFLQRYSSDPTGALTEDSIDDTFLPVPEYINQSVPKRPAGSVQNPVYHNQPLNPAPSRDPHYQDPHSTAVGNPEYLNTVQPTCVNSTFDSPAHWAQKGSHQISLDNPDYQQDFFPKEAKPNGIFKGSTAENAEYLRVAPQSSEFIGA

On to `O=C(NCCCO)c1sc2ncnc3c2c1NC(=O)N3c1ccc(F)c(Br)c1` [Cpd 154, 5-(3-bromo-4-fluoro-phenyl)-4-oxo-4,5-dihydro-3H-1-thia-3,5,6,8-tetraaza-acenaphthylene-2-carboxylic acid (3-hydroxy-propyl)-amide], for which the half-inhibitory concentration (IC50) was 592 nM against EGFR and more than 10000 nM on HER-2. The inhibition at 2 µM on c-Src kinase (human) was 8%; against Lyn kinase (human), 7%. Further, the inhibition at 1 µM against HER-2 worked out at 12%.
In the same order, the values of `O=C(Nc1ccc(CN2CCOCC2)cc1)c1sc2ncnc3c2c1NC(=O)N3c1ccccc1Cl` [Cpd 149, 5-(2-chloro-phenyl)-4-oxo-4,5-dihydro-3H-1-thia-3,5,6,8-tetraaza-acenaphthylene-2-carboxylic acid (4-morpholin-4-ylmethyl-phenyl)-amide] are 187 nM, 2540 nM, 54%, 72% and 53%.
`O=C(NCCCO)c1sc2ncnc3c2c1NC(=O)N3c1ccc(Oc2ccccc2)c(Cl)c1` [Cpd 137, 5-(3-chloro-4-phenoxy-phenyl)-4-oxo-4,5-dihydro-3H-1-thia-3,5,6,8-tetraaza-acenaphthylene-2-carboxylic acid (3-hydroxy-propyl)-amide]: the IC50 against EGFR amounted to 30 nM; at HER-2, 1630 nM. In addition, the inhibition at 2 µM at c-Src kinase (human) was 26%; against Lyn kinase (human), 43%. For the same compound, the inhibition at 1 µM against HER-2 came to 48%.
In the case of `Cc1ccc(Oc2ccc(N3C(=O)Nc4c(C(=O)Nc5ccc(CN6CCOCC6)cc5)sc5ncnc3c45)cc2Cl)cn1` [Cpd 129, 5-[3-chloro-4-(6-methyl-pyridin-3-yloxy)-phenyl]-4-oxo-4,5-dihydro-3H-1-thia-3,5,6,8-tetraaza-acenaphthylene-2-carboxylic acid (4-morpholin-4-ylmethyl-phenyl)-amide], the IC50 is 154 nM against EGFR and 515 nM on HER-2. For the same compound, the inhibition at 2 µM was -3% on c-Src kinase (human) and 10% against Lyn kinase (human). Further, the inhibition at 1 µM against HER-2 was 63%.
For `O=C(Nc1ccccc1)c1sc2ncnc3c2c1NC(=O)N3c1cccc(Br)c1` [Cpd 130, 5-(3-bromo-phenyl)-4-oxo-4,5-dihydro-3H-1-thia-3,5,6,8-tetraaza-acenaphthylene-2-carboxylic acid phenylamide], the IC50 against EGFR is 191 nM; at HER-2, more than 100000 nM. Further, the inhibition at 2 µM against c-Src kinase (human) is -3%; against Lyn kinase (human), 32%.
`Cc1ccc(-n2nc(C(C)(C)C)cc2N2C(=O)Nc3c(C(=O)Nc4ccc(CN5CCOCC5)cc4)sc4ncnc2c34)cc1` [Cpd 76, 5-(5-tert-butyl-2-p-tolyl-2H-pyrazol-3-yl)-4-oxo-4,5-dihydro-3H-1-thia-3,5,6,8-tetraaza-acenaphthylene-2-carboxylic acid (4-morpholin-4-ylmethyl-phenyl)-amide]: the values for the inhibition at 2 µM on EGFR and on c-Src kinase (human) were 7% and 43%, respectively. The inhibition at 1 µM against HER-2 is -11%.
In the case of `COc1ccc(NC(=O)c2sc3ncnc4c3c2NC(=O)N4c2ccc(Oc3ccccc3)cc2)cc1OC` [Cpd 99, 4-oxo-5-(4-phenoxy-phenyl)-4,5-dihydro-3H-1-thia-3,5,6,8-tetraaza-acenaphthylene-2-carboxylic acid (3,4-dimethoxy-phenyl)-amide], the values for the 50% inhibitory concentration (IC50) on EGFR and on HER-2 were 27 nM and 915 nM, respectively. At c-Src kinase (human), the inhibition at 2 µM is -9%. For the same compound, the inhibition at 1 µM at HER-2 came out at 60%.
At EGFR, `COc1ccc(-c2sc3ncnc4c3c2NC(=O)N4c2ccc(F)c(Cl)c2)cc1OC` [Cpd 9, 5-(3-chloro-4-fluoro-phenyl)-2-(3,4-dimethoxy-phenyl)-3H,5H-1-thia-3,5,6,8-tetraaza-acenaphthylen-4-one] gave a 50% inhibitory concentration (IC50) of 1030 nM. In addition, the inhibition at 2 µM against c-Src kinase (human) is 26%; against Lyn kinase (human) it was -7%.
For `CC(C)(C)OC(=O)NCCCNC(=O)c1sc2ncnc3c2c1NC(=O)N3c1ccc2c(ccn2Cc2cccc(F)c2)c1` [Cpd 141, [3-({5-[1-(3-fluoro-benzyl)-1H-indol-5-yl]-4-oxo-4,5-dihydro-3H-1-thia-3,5,6,8-tetraaza-acenaphthylene-2-carbonyl}-amino)-propyl]-carbamic acid tert-butyl ester], the inhibition at 2 µM was found to be 26% against c-Src kinase (human) and 37% against Lyn kinase (human). Also, the 50% inhibitory concentration (IC50) at HER-2 is approximately 100000 nM.
On to `COc1cc(N2C(=O)Nc3c(C(=O)N(C)C)sc4ncnc2c34)ccc1Br` [Cpd 83, 5-(4-bromo-3-methoxy-phenyl)-4-oxo-4,5-dihydro-3H-1-thia-3,5,6,8-tetraaza-acenaphthylene-2-carboxylic acid dimethylamide], for which the inhibition at 2 µM was -2% on EGFR and 44% at c-Src kinase (human). On HER-2, the half-maximal inhibitory concentration (IC50) was more than 10000 nM.
On to `CN1CCN(Cc2ccc(NC(=O)c3sc4ncnc5c4c3NC(=O)N5c3ccc(Br)cc3F)cc2)CC1` [Cpd 70, 5-(4-bromo-2-fluoro-phenyl)-4-oxo-4,5-dihydro-3H-1-thia-3,5,6,8-tetraaza-acenaphthylene-2-carboxylic acid [4-(4-methyl-piperazin-1-ylmethyl)-phenyl]-amide], for which the IC50 came out at 330 nM at EGFR and 1020 nM on HER-2. Further, at c-Src kinase (human), the inhibition at 2 µM stood at 43%.
In the case of `O=C(Nc1ccc(CCN2CCCCC2)cc1)c1sc2ncnc3c2c1NC(=O)N3c1ccc(Oc2ccccc2)c(F)c1` [Cpd 114, 5-(3-fluoro-4-phenoxy-phenyl)-4-oxo-4,5-dihydro-3H-1-thia-3,5,6,8-tetraaza-acenaphthylene-2-carboxylic acid [4-(2-piperidin-1-yl-ethyl)-phenyl]-amide], the IC50 against EGFR stood at 25 nM; on HER-2, 536 nM. Besides, the inhibition at 2 µM at Lyn kinase (human) was determined as 40%. Besides, at Lyn kinase (human) (2 µM), the “% Inhibition (Lyn)” value is 48.5%. Also, the inhibition at 1 µM at HER-2 came out at 60%.
As for `COc1cc(N2C(=O)Nc3c(C(=O)Nc4ccc(CN5CCN(C)CC5)cc4)sc4ncnc2c34)ccc1Br` [Cpd 85, 5-(4-bromo-3-methoxy-phenyl)-4-oxo-4,5-dihydro-3H-1-thia-3,5,6,8-tetraaza-acenaphthylene-2-carboxylic acid [4-(4-methyl-piperazin-1-ylmethyl)-phenyl]-amide], the inhibition at 2 µM on EGFR is 36%; at c-Src kinase (human), -17%. The IC50 on HER-2 came to 4380 nM.
Take `COc1cc(N2C(=O)Nc3c(C(=O)Nc4ccc(OC)c(OC)c4)sc4ncnc2c34)ccc1Br` [Cpd 82, 5-(4-bromo-3-methoxy-phenyl)-4-oxo-4,5-dihydro-3H-1-thia-3,5,6,8-tetraaza-acenaphthylene-2-carboxylic acid (3,4-dimethoxy-phenyl)-amide]: the values for the inhibition at 2 µM at EGFR and against c-Src kinase (human) were 30% and 43%, respectively. Besides, at HER-2, the IC50 is more than 10000 nM.

In general, IC50 refers to the concentration needed to halve the response being measured. The term inhibition denotes the drop in the measured response relative to a control, in per cent.

These data come from patent publication US7579356B2, “Thia-tetraazaacenaphthylene kinase inhibitors” (Janssen Pharmaceutica NV, priority 2005, dated 2009).
